Patent US20220308068A1, “BIOMARKER IN OSTEOPOROSIS INTERVENTION THERAPY BY BONE PEPTIDE, SCREENING METHOD AND USE THEREOF” (Institute of Food Science and Technology, Chinese Academy …, priority 2019, published 2022)

How the values were obtained:
[1] = test system: ovariectomized osteoporosis rat model; experiment: serum bone turnover markers by automatic serum biochemical analyzer; format: in vivo, SD rats
Experimental: 1, the construction of ovariectomized rats models: SD rats are kept in a clean environment under a controlled room temperature at 25±2° C. and alternates 12/12 light and dark every day, and the SD rats feed freely. After one week adaptive feeding, randomly select 8 female rats, anesthetize them with 1% (v/v) pentobarbital sodium (40 mg/kg BW), and remove a little fat near ovaries. The remaining 40 rats are ovariectomized after being anesthetized with pentobarbital sodium. The recovery situation is observed in a 4-week recovery period, and their weight changes are detected. These are prepared by the applicant in advance. (any research about metabolic fingerprint changes of ovariectomized osteoporotic rats after intervention with bone peptide have not been reported according to the existing literature). 2, animal grouping and samples collection: the 8 female rats with a little fat near ovaries removed are selected as a sham-operated group, the ovariectomized 40 rats are randomly divided into 5 groups with 8 rats in each group, and are named by a negative control group, a positive control group, a low-concentration treatment group, a medium-concentration treatment group and a high-concentration treatment group. The rats are perfused by different solutions of bovine bone peptide (diluted by ultrapure water, and sterilized) with concentration of 100 mg/kg, 200 mg/kg, and 500 mg/kg according to the weights of the rats. The rats in the negative control group are perfused with equal volume of ultrapure sterile water (a perfusing volume is generally 1-2 mL/100 g BW), and the rats in the positive control group are perfused with 50 μg/kg of 17β-estradiol (ES). Observe weight changes of the rats and measure the weights every two weeks. Urine is automatically collected with a metabolic cage for 12 hours every 4 weeks (the urine is collected as much as possible under the premise of ensuring normal signs of the rats). 1 mmol/L NaN3 solution is added into collected urine as a preservative, the collected urine is placed in a centrifuge at 4° C. and centrifuged at a speed of 10000×g for 10 minutes, and the supernatant is collected, distributed and stored in a refrigerator at −80° C. for determining. The rats are fasted for 12 hours at 4th week, 8th week, and 12th week. Fasted rats are anesthetized by intraperitoneal injection of pentobarbital sodium (40 mg/kg BW) with a volume concentration of 1%, and are subjected to blood collection from the abdominal aorta (the blood is collected as much as possible under the premise of ensuring normal signs of the rats). Collected blood is placed at 4° C. for 3 h and is centrifuged (5000 rpm) for 10 minutes. Upper serum is collected (collecting 2 mL of blood, separating into 4 tubes after separating the serum), is divided into 0.5 mL EP tubes, and stored in a refrigerator at −80° C. for later use. The metabolic cage comprises a cage body with a bottom and a metabolite collecting part. The metabolite collecting part is arranged below the cage body and comprises a barrel 1 and a cover 2 mounted on an upper end of a peripheral wall of a first side of the barrel, an upper end of a peripheral wall of a second side of the barrel is provided with a drainage port, and a solid-liquid separating part is arranged in the barrel. The solid-liquid separating part comprises an arc-shaped partition plate 3 with a first end fixed with a peripheral wall of the barrel and multi-stage filter plates 4, which divide an inner space of the barrel into a first accommodating space and a second accommodating space. The multi-stage filter plates are arranged in the second accommodating space along a vertical direction, and the multi-stage filter plates are successively arranged end to end to form a folded-line diversion channel. A depth of a bottom wall of the barrel from the first side to the second side becomes larger. […]

[2] = test system: ovariectomized osteoporosis rat model; experiment: non-targeted serum metabolomics (UPLC/Q-TOF-MS); format: in vivo, SD rats; settings: ES group vs Model group
Experimental: 1, the construction of ovariectomized rats models: SD rats are kept in a clean environment under a controlled room temperature at 25±2° C. and alternates 12/12 light and dark every day, and the SD rats feed freely. After one week adaptive feeding, randomly select 8 female rats, anesthetize them with 1% (v/v) pentobarbital sodium (40 mg/kg BW), and remove a little fat near ovaries. The remaining 40 rats are ovariectomized after being anesthetized with pentobarbital sodium. The recovery situation is observed in a 4-week recovery period, and their weight changes are detected. These are prepared by the applicant in advance. (any research about metabolic fingerprint changes of ovariectomized osteoporotic rats after intervention with bone peptide have not been reported according to the existing literature).
2, animal grouping and samples collection: the 8 female rats with a little fat near ovaries removed are selected as a sham-operated group, the ovariectomized 40 rats are randomly divided into 5 groups with 8 rats in each group, and are named by a negative control group, a positive control group, a low-concentration treatment group, a medium-concentration treatment group and a high-concentration treatment group. The rats are perfused by different solutions of bovine bone peptide (diluted by ultrapure water, and sterilized) with concentration of 100 mg/kg, 200 mg/kg, and 500 mg/kg according to the weights of the rats. The rats in the negative control group are perfused with equal volume of ultrapure sterile water (a perfusing volume is generally 1-2 mL/100 g BW), and the rats in the positive control group are perfused with 50 μg/kg of 17β-estradiol (ES). Observe weight changes of the rats and measure the weights every two weeks.
Urine is automatically collected with a metabolic cage for 12 hours every 4 weeks (the urine is collected as much as possible under the premise of ensuring normal signs of the rats). 1 mmol/L NaN3 solution is added into collected urine as a preservative, the collected urine is placed in a centrifuge at 4° C. and centrifuged at a speed of 10000×g for 10 minutes, and the supernatant is collected, distributed and stored in a refrigerator at −80° C. for determining. The rats are fasted for 12 hours at 4th week, 8th week, and 12th week. Fasted rats are anesthetized by intraperitoneal injection of pentobarbital sodium (40 mg/kg BW) with a volume concentration of 1%, and are subjected to blood collection from the abdominal aorta (the blood is collected as much as possible under the premise of ensuring normal signs of the rats). Collected blood is placed at 4° C. for 3 h and is centrifuged (5000 rpm) for 10 minutes. Upper serum is collected (collecting 2 mL of blood, separating into 4 tubes after separating the serum), is divided into 0.5 mL EP tubes, and stored in a refrigerator at −80° C. for later use. The metabolic cage comprises a cage body with a bottom and a metabolite collecting part. The metabolite collecting part is arranged below the cage body and comprises a barrel 1 and a cover 2 mounted on an upper end of a peripheral wall of a first side of the barrel, an upper end of a peripheral wall of a second side of the barrel is provided with a drainage port, and a solid-liquid separating part is arranged in the barrel. The solid-liquid separating part comprises an arc-shaped partition plate 3 with a first end fixed with a peripheral wall of the barrel and multi-stage filter plates 4, which divide an inner space of the barrel into a first accommodating space and a second accommodating space. The multi-stage filter plates are arranged in the second accommodating space along a vertical direction, and the multi-stage filter plates are successively arranged end to end to form a folded-line diversion channel. A depth of a bottom wall of the barrel from the first side to the second side becomes larger. […]

[3] = treatment groups and ES group vs Model group
[4] = vs Model group, P<0.05, YBP 100/200/500 mg/kg, ES 50 μg/kg perfused

C[C@]12CC[C@@H]3c4ccc(O)cc4CC[C@H]3[C@@H]1CC[C@@H]2O [ES, 17β-estradiol]
content of DPD [1, 3]: on a decline trend | content of PINP [1, 3]: on a decline trend | content of S-CTX [1, 3]: on a decline trend | content of TRAP [1, 3]: on a decline trend | content of B-ALP (bone alkaline phosphatase) [1, 4]: significantly increased | content of BGP (bone gamma-carboxyglutamic acid containing proteins) [1, 4]: significantly increased | serum 1-O-(cis-9-octadecenyl)-2-O-acetyl-sn-glycerol-3-phosphocholine change [2]: up-regulated trend | serum 1-oleoyl-sn-glycerol-3-phosphocholine change [2]: up-regulated trend | serum 1-palmitoyl-sn-glycerol-3-phosphocholine change [2]: up-regulated trend | serum 1-stearoyl-sn-glycerol-3-phosphocholine change [2]: up-regulated trend | serum L-palmitoyl change [2]: up-regulated trend | serum L-pyroglutamic acid change [2]: down-regulated trend | serum isoleucine-arginine change [2]: down-regulated trend | serum pantothenic acid change [2]: up-regulated trend
